Common to all, as to format: in vivo
In test [1] the test system is Psylla piri. Briefly: Example 6: pear trees treated against Psylla piri. Particulars: larvae on shoots, % a.i.: amitraz 0.05, I-9, I-2, I-1 0.096; for Kill (%) 3 d: 3 d after last of two treatments; for Kill (%) 10 d: 10 d after last of two treatments; for Kill (%) 20 d: 20 d after last of two treatments. The method, then:
In three replications, in each case 4 about 4-year-old pear trees of the cultivar “Williams Christ” are treated against Psylla piri. Two applications are carried out at an interval of 11 days using a motor-operated barrow-mounted sprayer. Here, the active compounds Example (I-9) (240 SC), Example (I-2) (240 SC) and Example (I-1) (240 SC) are tested against the commercial standard Amitraz (200 EC) at the stated amounts. The application rate is 2000 l of water/ha.
Evaluation is carried out 3, 10 and 20 days after the last treatment by rating the kill of the larvae in percent on the shoots.

Another test concerns Nasonovia ribisnigri. Briefly: Example 42: head lettuce treated against Nasonovia ribisnigri. As to conditions: on plants, g a.i./ha: Pirimor 150, I-4 48, I-8 42. The method, then:
In four replications, plots of a size of 5 m^2 with head lettuce are, two weeks after transplantation, treated against Nasonovia ribisnigri. The application is carried out using a knapsack sprayer operated with pressurized air. Here, the active compounds Example (I-4) (240 SC) and Example (I-8) (240 SC) are, in a tank mix with 0.2% a.i. of rapeseed oil methyl ester (500 EW), tested against the commercial standard Pirimor, at the stated application rates. The application rate is 500 l of water/ha.
Evaluation is carried out 7, 14 and 26 days after the treatment by rating the kill of the animals on the plants.

The test system of the next test is Saissetia oleae. Briefly: Example 13: orange trees treated against Saissetia oleae. As to conditions: nymphs on leaves, g a.i./ha/m crown height: buprofezin 500, I-4 72, I-8 30. The method, then: In three replications, in each case two about 8-year-old orange trees are treated against Saissetia oleae. Here, the active compounds Example (I-4) (240 SC) and Example (I-8) (250 SC) in a tank mix with 0.2% a.i. of rapeseed oil methyl ester (500 EW) at the stated application rate are tested against the commercial standard buprofezin in a tank mix with 0.4% a.i. of Oliocin (800 EW) at the stated application rate. The application is carried out using a motor-operated knapsack sprayer. The application rate is 3000 l of water/ha. Two treatments are carried out, at an interval of 29 days.
Evaluation is carried out 24 and 44 days after the last treatment by rating the kill of the nymphs on the leaves.

In test [2] the test system is Bemisia argentifolii. Description: Example 36: aubergine plants (Ryoma) treated against Bemisia argentifolii. Particulars: nymphs on leaves, % a.i.: pymetrozine 0.0125, I-4 0.072, I-8 0.06; for Kill (%) 13 d: 13 d after treatment; for Kill (%) 20 d: 20 d after treatment; for Kill (%) 27 d: 27 d after treatment. The method, then:
In three replications, in each case four aubergine plants of the cultivar “Ryoma” are treated against Bemisia argentifolii. The application is carried out using a motor-operated knapsack sprayer. Here, the active compounds Example (I-4) and Example (I-8), in a tank mix with 0.2% a.i. of rapeseed oil methyl ester (500 EW), and the commercial standard pymetrozine (25 WP) are tested at the stated application rates. The application rate is 3200 l of water/ha.
Evaluation is carried out 13, 20 and 27 days after the treatment by rating the kill of the nymphs on the leaves.

Test [3] concerns Psylla piri. Description: Example 5: pear trees treated against Psylla piri. As to conditions: nymphs on shoots, g a.i./ha/m crown height: amitraz 266, I-4 72. The method, then:
In three replications, pear trees of the cultivar “Williams Christ” are treated against Psylla piri. Application is shortly before the eggs hatch. The application is carried out using a barrow-mounted sprayer operated with pressurized air. Here, the active compound Example (I-4) (240 SC) is tested in a tank mix with 0.1% a.i. rapeseed oil methyl ester (500 EW) at the stated amount against the standard amitraz (200 EC) at the stated amount. The application rate is 1000 l of water/ha.
Evaluation is carried out 7, 14 and 21 days after the treatment by rating the kill of the nymphs on the shoots.

A further test deals with Paratrioza cockerelli. Description: Example 7: bell peppers treated against Paratrioza cockerelli. Particulars: nymphs on leaves, g a.i./ha: imidacloprid 52.6, I-4 72, dimethoate 561. The method, then: In four replications, plots of a size of about 7 m^2 with bell peppers of the cultivar “Jupiter” are treated against Paratrioza cockerelli. The application is carried out with a knapsack sprayer operated with pressurized air. Here, the active compound Example (I-4) (240 SC) is applied in a tank mix with 0.2% a.i. of rapeseed oil methyl ester (500 EW) and the commercial standards imidacloprid 192 SC and dimethoate (480 EC) are applied in a tank mix with 0.125% Induce at the stated application rates. The application is carried out with an application rate of 467 l of water/ha.
Evaluation is carried out 7 and 15 days after the treatment by rating the kill of the animals (nymphs) on the leaves.

For a further test, the system named is Macrosiphum euphorbiae. Briefly: Example 46: head lettuce treated against Macrosiphum euphorbiae. Particulars: nymphs on plants, g a.i./ha: endosulfan 1120, I-4 48. The method, then: (§1) In four replications, plots of a size of about 33 m^2 with head lettuce of the cultivar “PIC 714” are treated against Aulacorthum solani, Macrosiphum euphorbiae and Myzus persicae. The application is carried out using a tractor sprayer. Here, the active compound Example (I-4) (240 SC), in a tank mix with 0.2% a.i. of rapeseed oil methyl ester (500 EW), is tested against the commercial standard endosulfan (360 EC), at the stated application rates. The application rate is 187 l of water/ha. Two treatments are carried out, at an interval of 22 days.
(§2) Evaluation is carried out 8, 22, 30 and 40 days after the first treatment by rating the kill of the nymphs on the plants.

A further test relates to Aulacorthum solani. Description: Example 46: head lettuce treated against Aulacorthum solani. Particulars: nymphs on plants, g a.i./ha: endosulfan 1120, I-4 48. The method, then: as §1, §2
Test [4] concerns Myzus persicae. Briefly: Example 46: head lettuce treated against Myzus persicae. Particulars: nymphs on plants, g a.i./ha: endosulfan 1120, I-4 48. The method, then: as §1, §2
Test [5] relates to Bemisia argentifolii. Description: Example 37: cantaloupe melons treated against Bemisia argentifolii. Particulars: nymphs on leaves, g a.i./ha: endosulfan 1120, I-4 48. The method, then: In four replications, plots of a size of about 39 m^2 with cantaloupe melons of the cultivar “Western Shipper” are treated against Bemisia argentifolii. The application is carried out using a knapsack sprayer operated with pressurized air. Here, the active compound Example (I-4) (240 SC), in a tank mix with 0.2 a.i. of rapeseed oil methyl ester (500 EW), and the commercial standard endosulfan (360 EC) are tested at the stated application rates. Two applications are carried out at an interval of 16 days. The application rate is 187 l of water/ha.
Evaluation is carried out 5, 13, 21 and 29 days after the first treatment by rating the kill of the animals (nymphs) on the leaves.

A further test has as its system Pemphigus bursarius. Description: Example 3: chrysanthemums, lettuce root aphid. Particulars: on roots, drip irrigation 0.1%. The method, then: In three replications, in each case 10 about 5-month-old chrysanthemums (Camilla) in 2 l-vessels are treated against the lettuce root aphid Pemphigus bursarius. Here, the active compound Example (I-4) (240 SC) is applied with a knapsack sprayer operated by pressurized air at the beginning of the infestation at the stated application rates to the above-ground parts of the plants. The soil is covered with a film. The application rate is 600 l of water/ha. 0.1% a.i. of rapeseed oil methyl ester (500 EW) is added to the spray liquor. Omethoate as drip irrigation in a concentration of 0.1% is used for comparison. The application is carried out two days later.
The kill in percent is determined on the roots. […]

In test [6] the test system is Myzus persicae. Description: Example 48: aubergine plants treated against Myzus persicae. As to conditions: on leaves, rate (g of a.i./ha): pymethrozine 0.0125, I-4 0.024. The method, then:
In three replications, four aubergine plants (age about 7 months) of the cultivar “Hayabusa” are treated against Myzus persicae. The application is carried out using a motor-operated knapsack sprayer. Here, the active compound Example (I-4) (240 SC), in a tank mix with 0.1% a.i. of rapeseed oil methyl ester (500 EW), and the commercial standard pymethrozine (25 WP) are tested at the stated application rates. The application rate is 3000 l of water/ha.
Evaluation is carried out 7, 14, 21 and 29 days after the treatment by rating the kill of the animals on the leaves.

[7] abbreviates: 8 d after first of two treatments.
Setting [8] is: 22 d after first of two treatments.
Setting [9] is: 30 d after first of two treatments.
The mark [10] stands for this setting: 40 d after first of two treatments.

This note sets out measurements from patent publication US20090012152A1, “Use of Tetramic Acid Derivatives for Controlling Insects from the Genus of the Plane Lice (Sternorrhyncha)” (Bayer CropScience Aktiengesellschaft, priority 2005, published 2009).

Structures are written as SMILES.

Consider `COC1CCC2(CC1)NC(=O)C(c1cc(C)ccc1Br)=C2OC(=O)C(C)C` (stereo not shown) [Example (I-1)], for which, in the test with Psylla piri [1], the “Kill (%) 3 d” value worked out at 90.0%, the “Kill (%) 10 d” value was found to be 96.6% and the “Kill (%) 20 d” value amounted to 95.0%.

As for `CCOC(=O)OC1=C(c2cc(C)c(Cl)cc2C)C(=O)NC12CCC(OC)CC2` (stereo not shown) [Example (I-8)], the “Kill (%) 7 d” value in the test with Nasonovia ribisnigri (7 d after treatment) is on record as 80.8%. Moreover, the “Kill (%) 14 d” value with Nasonovia ribisnigri (14 d after treatment) is given as 93.6%. For the same molecule, the “Kill (%) 26 d” value in the test on Nasonovia ribisnigri (26 d after treatment) stood at 92.7%. In addition, the “Kill (%) 24 d” value with Saissetia oleae (24 d after last of two treatments) is recorded as 66.5%. The “Kill (%) 44 d” value in the test on Saissetia oleae (44 d after last of two treatments) stood at 56.1%. For the same molecule, in the test with Bemisia argentifolii [2], the “Kill (%) 13 d” value came to 99.5%, the “Kill (%) 20 d” value worked out at 99.9% and the “Kill (%) 27 d” value is 97%.

In the case of `Cc1ccc(/N=C/N(C)/C=N/c2ccc(C)cc2C)c(C)c1` [amitraz, reference compound], the “Kill (%) 7 d” value in the test on Psylla piri [3] (7 d after treatment) amounted to 100%. In addition, the “Kill (%) 14 d” value in the test with Psylla piri [3] (14 d after treatment) stood at 95.2%. Besides, in the test on Psylla piri [3] (21 d after treatment), the “Kill (%) 21 d” value is 75%. Moreover, in the test with Psylla piri [1], the “Kill (%) 3 d” value amounted to 54.3%, the “Kill (%) 10 d” value stood at 56.7% and the “Kill (%) 20 d” value amounted to 21.4%.

As to `CNC(=O)CSP(=S)(OC)OC` [dimethoate], in the test on Paratrioza cockerelli (7 d after treatment), the “Kill (%) 7 d” value is 63%. Moreover, the “Kill (%) 15 d” value with Paratrioza cockerelli (15 d after treatment) turned out to be 0%.

On to `O=S1OCC2C(CO1)C1(Cl)C(Cl)=C(Cl)C2(Cl)C1(Cl)Cl` (stereo not shown) [endosulfan, reference compound], for which the results for the “Kill (%) 8 d” value in the test on Macrosiphum euphorbiae (setting [7]), in the test on Aulacorthum solani (setting [7]) and with Myzus persicae [4] (setting [7]) were 100%, 96% and 95%, respectively. In addition, the “Kill (%) 22 d” value with Macrosiphum euphorbiae (setting [8]) amounted to 100%; with Aulacorthum solani (setting [8]), 88%; with Myzus persicae [4] (setting [8]) it was 61%. The entries for the “Kill (%) 30 d” value in the test on Macrosiphum euphorbiae (setting [9]), in the test on Aulacorthum solani (setting [9]) and in the test on Myzus persicae [4] (setting [9]) were 99%, 98% and 100%, respectively. For the same molecule, the “Kill (%) 40 d” value with Macrosiphum euphorbiae (setting [10]) is 96%; with Aulacorthum solani (setting [10]), 53%. The “Kill (%) 5 d” value with Bemisia argentifolii [5] (5 d after first of two treatments) worked out at 0%. For the same molecule, the “Kill (%) 13 d” value with Bemisia argentifolii [5] (13 d after first of two treatments) is listed as 100%. Besides, the “Kill (%) 21 d” value with Bemisia argentifolii [5] (21 d after first of two treatments) is given as 80.8%. The “Kill (%) 29 d” value in the test on Bemisia argentifolii [5] (29 d after first of two treatments) is 66.7%.

Take `CNC(=O)CSP(=O)(OC)OC` [omethoate, reference compound]: in the test with Pemphigus bursarius (7 d), the “Kill (%) 7 d” value is on record as 20 (7 d) %. For the same molecule, the “Kill (%) 15 d” value in the test with Pemphigus bursarius (15 d) is recorded as 70.6 (15 d) %.

`CC1=NNC(=O)N(/N=C/c2cccnc2)C1` [pymetrozine, reference compound]: the “Kill (%) 7 d” value with Myzus persicae [6] (7 d after treatment) is 99.9%. For the same molecule, the “Kill (%) 14 d” value in the test with Myzus persicae [6] (14 d after treatment) stood at 99%. For the same molecule, in the test with Myzus persicae [6] (21 d after treatment), the “Kill (%) 21 d” value turned out to be 95%. In addition, the “Kill (%) 29 d” value with Myzus persicae [6] (29 d after treatment) is recorded as 73%. Besides, in the test with Bemisia argentifolii [2], the “Kill (%) 13 d” value is recorded as 79%, the “Kill (%) 20 d” value is listed as 74% and the “Kill (%) 27 d” value came out at 75%.
